Values quoted from earlier work as cited in paper PMC12042267, “Expanding the Family of Monosubstituted 15-Membered Pyridine-Based Macrocyclic Ligands for Mn(II) Complexation in the Context of MRI” (Inorganic Chemistry, 2025).
Like-named read-outs stand apart in the source and are kept apart here.

Columns and labels:
[1] = cited from earlier work; for r1 (relaxivity): 20 MHz
[2] = cited from earlier work
[3] = Cu(II); 0.1 M NMe4Cl ref 20; cited from earlier work
[4] = cited from earlier work; remark: listed apart in the source
[5] = Zn(II); 0.1 M NMe4Cl ref 20; cited from earlier work
[6] = Ca(II); 0.1 M NMe4Cl ref 20; cited from earlier work
[7] = cited from earlier work; remark: listed apart in the source
[8] = Mn(II) complex, cited from earlier work
[9] = Mn(II), I = 0.15 M NaCl, 25 °C ref 22

For `O.O=C([O-])CN1CCOCCOCCNCc2cccc(n2)C1.[Mn+2]` [MnL1], the “r1 (relaxivity)” value ([1]; 25 °C, 0.47 T ref 30) is given as 2.45 mM^–1 s^–1, the “r1 (relaxivity)” value ([1]; 37 °C, 0.47 T ref 30) is given as 2.08 mM^–1 s^–1 and the AO/ℏ [2] is given as 38.6 10^6 rad s^–1. The ErH [2] was 15.0 ± 0.5 kJ mol^–1, the “kex^298” value [2] was 0.45 ± 0.02 10^7 s^–1 and the “ΔH^‡” value [2] was 28.1 ± 2.1 kJ mol^–1. For the same compound, the “ΔS^‡” value [2] was “–23 ± 6 J mol^–1K^–1”, the “Δ^2” value [2] was 160 ± 10 10^18 s^–2 and the “τrH^298” value [2] was 35 ± 5 ps. For the same compound, the “τv^298” value [2] was 8 ± 1 ps.
For `O=P(O)(O)CN1CCNCc2cccc(n2)CNCC1` [PC1P], the “log KHML” value [3] is listed as 4.89, the “log KML” value [3] is listed as 22.63 and the “log KML” value ([4]; Mn(II), 0.1 M NMe4Cl ref 20) is listed as 14.06. For the same compound, the “log KML(OH)” value ([4]; Mn(II), 0.1 M NMe4Cl ref 20) was -11.97, the “log KHML” value ([4]; Mn(II), 0.1 M NMe4Cl, log KMnHL in Table 5 ref 20) was 5.35 and the pMn ([4]; pH 7.4, cMn = clig = 10^–5 M ref 20) was 8.30. For the same compound, the “log KHML” value [5] was 5.19, the “log KML” value [5] was 19.66 and the “log KML(OH)” value [5] was 12.33. For the same compound, the “log KML” value [6] was 6.85, the “log K1^H” value ([7]; 0.1 M NMe4Cl ref 20) was 11.84 and the “log K2^H” value ([7]; 0.1 M NMe4Cl ref 20) was 9.64. The “log K3^H” value ([7]; 0.1 M NMe4Cl ref 20) was 6.23 and the “log K4^H” value ([7]; 0.1 M NMe4Cl ref 20) was 0.99.
In the case of `NCCN1CCN(CC(=O)O)Cc2cccc(n2)CN(CC(=O)O)CC1` [PC2A-EA], the “log KH2ML” value [4, 9] is listed as 2.50, the “log KML” value [4, 9] is listed as 19.01 and the “log KHML” value ([4]; Mn(II), I = 0.15 M NaCl, 25 °C, log KMnHL in Table 5 ref 22) is listed as 6.88. The pMn ([4]; pH 7.4, cMn = clig = 10^–5 M ref 22) was 9.27, the k1 ([8]; Cu(II) transmetalation ref 22) was 0.6 M^–1 s^–1 and the “dissociation half-life t1/2” value ([8]; calculated for pH 7.4, Cu(II) ref 22) was 333 days. The “log K1^H” value ([7]; I = 0.15 M NaCl, 25 °C ref 22) was 11.34, the “log K2^H” value ([7]; I = 0.15 M NaCl, 25 °C ref 22) was 8.93 and the “log K3^H” value ([7]; I = 0.15 M NaCl, 25 °C ref 22) was 6.91. For the same compound, the “log K4^H” value ([7]; I = 0.15 M NaCl, 25 °C ref 22) was 1.97.
In the case of `O.O.O.O.O.O.[Mn+2]` [[Mn(H2O)6]^2+], the “r1 characteristic of free hexaaqua Mn(II)” value ([1]; 1.41 T, 60 MHz, 25 °C ref 46) is given as 6.7 mM^–1 s^–1, the “r1 (relaxivity)” value ([1]; 25 °C, 0.47 T ref 54) is given as 8.36/– mM^–1 s^–1 and the AO/ℏ [2] is given as 33.3 10^6 rad s^–1. The “kex^298” value [2] was 2.1 10^7 s^–1, the “ΔH^‡” value [2] was 32.9 kJ mol^–1 and the “ΔS^‡” value [2] was “+5.7 J mol^–1K^–1”. The “Δ^2” value [2] was 5.6 10^18 s^–2, the “τrH^298” value [2] was 30 ps and the “τv^298” value [2] was 3.3 ps.
For `O.O=C([O-])CN1CCNCc2cccc(n2)CNCC1.[Mn+2]` [[Mn(PC1A)(H2O)]^+], the r1p298 ([1]; determined at pH 7.4 ref 20) is given as 2.39 mM^–1 s^–1, the “kex^298” value [2] is given as 303 ± 19 10^7 s^–1 and the “ΔH^‡” value [2] is given as 13.0 ± 1.6 kJ mol^–1.
For `O.O=P([O-])([O-])CN1CCNCc2cccc(n2)CNCC1.[Mn+2]` [[Mn(PC1P)(H2O)]], the r1p298 ([1]; determined at pH 7.4 ref 20) is listed as 2.84 mM^–1 s^–1, the “kex^298” value [2] is listed as 177 ± 9 10^7 s^–1 and the “ΔH^‡” value [2] is listed as 14.0 ± 1.2 kJ mol^–1.
In the case of `O.O=C([O-])CN1CCN(Cc2ccc(-c3ccccc3)cc2)CCN(CC(=O)[O-])Cc2cccc(n2)C1.[Mn+2]` [[Mn(PC2A-BP)(H2O)]], the r1p298 ([1]; determined at pH 7.4 ref 29) is given as 4.96 mM^–1 s^–1, the r1p298 ([1]; measured in the presence of HSA ref 55) is given as 35.7 mM^–1 s^–1 and the “kex^298” value ([2]; Table 7, footnote h ref 29) is given as 6.3 ± 0.2 10^7 s^–1. For the same compound, the “ΔH^‡” value ([2]; Table 7, footnote h ref 29) was 35.7 ± 0.1 kJ mol^–1.
For `NCCN1CCN(CC(=O)[O-])Cc2cccc(n2)CN(CC(=O)[O-])CC1.O.[Mn+2]` [[Mn(PC2A-EA)(H2O)]], the r1p298 ([1]; 298 K and 0.47 T, pH 6.0 ref 22) is listed as 2.1 mM^–1 s^–1, the r1p298 ([1]; 298 K and 0.47 T, pH 7.4 ref 22) is listed as 3.5 mM^–1 s^–1 and the “kex^298” value [2] is listed as 4.0 ± 0.2 10^7 s^–1.
